Data set [1] has as its target T1, Lysine-specific histone demethylase 1A (Homo sapiens, UniProt O60341).
Description: Inhibition of recombinant human LSD1 using fluorometric substrate by HRP based fluorimeter microplate reader assay
Data set [2] has as its target T1, Lysine-specific histone demethylase 1A. Briefly: Reversible inhibition of LSD-1 (unknown origin) by jump dilution assay.
In another data set the test system is HeLa. The data set is described as follows: Antiproliferative activity against human HeLa cells assessed as inhibition of cell growth incubated for 72 hrs by CCK-8 assay. The format is functional, cell-based.
The nature of data set [3]: AUC (0-t) in Sprague-Dawley rat at 3 mg/kg,iv by LC-MS/MS analysis. As to conditions: in vivo. Set-up: dose 3 mg/kg, route iv. The format is ADME, organism-based.
Data set [4] concerns the target T2, Amine oxidase [flavin-containing] A (Homo sapiens, UniProt P21397).
T2 sequence (P21397 whole entry): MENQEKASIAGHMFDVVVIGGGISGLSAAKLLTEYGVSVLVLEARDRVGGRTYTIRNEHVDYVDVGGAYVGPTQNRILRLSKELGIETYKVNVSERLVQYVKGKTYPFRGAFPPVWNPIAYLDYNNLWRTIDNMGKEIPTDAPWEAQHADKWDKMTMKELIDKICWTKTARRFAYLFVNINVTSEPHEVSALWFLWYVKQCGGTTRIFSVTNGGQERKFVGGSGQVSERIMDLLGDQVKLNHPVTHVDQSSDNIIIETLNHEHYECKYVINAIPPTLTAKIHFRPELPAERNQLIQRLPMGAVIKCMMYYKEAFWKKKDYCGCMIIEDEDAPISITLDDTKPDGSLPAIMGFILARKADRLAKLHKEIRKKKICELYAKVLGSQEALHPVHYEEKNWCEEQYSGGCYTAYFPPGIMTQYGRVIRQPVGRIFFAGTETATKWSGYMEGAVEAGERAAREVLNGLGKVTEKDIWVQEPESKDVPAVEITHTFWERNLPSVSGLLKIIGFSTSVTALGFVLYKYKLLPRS
Description: Inhibition of recombinant MAO-A (unknown origin) incubated for 60 mins by luminescence based flow cytometry

Data set [5] concerns the target T1, Lysine-specific histone demethylase 1A. Briefly: Inhibition of LSD1 in human A549 cells assessed as increase in H3K4me1 protein level at 1 to 4 uM incubated for 72 hrs by Western blotting assay. As to conditions: dose 1-4 µM. The format is cell-based.
The target in the next data set is CYP3A4 (Homo sapiens, UniProt P08684). The data set is described as follows: Inhibition of CYP3A4 (unknown origin) at 10 uM incubated for 20 mins in presence of NADPH by LC/MS/MS analysis relative to control. It counts as ADME.
Data set [6] concerns the target Voltage-gated inwardly rectifying potassium channel KCNH2 (Homo sapiens, UniProt Q12809). The data set is described as follows: Inhibition of human ERG stably expressed in CHO cells by patch clamp assay. The format is toxicity, cell-based. Background: The patch-clamp technique gives a direct electrical read-out from membranes.
For data set [7], the system named is A549. Briefly: cells. As to conditions: Homo sapiens, A549, 72 h.
Description: Antiproliferative activity against human A549 cells assessed as inhibition of cell growth incubated for 72 hrs by CCK-8 assay
Data set [8] in a line: AUC (0-infinity) in Sprague-Dawley rat at 10 mg/kg,po by LC-MS/MS analysis. The format is ADME, organism-based. On the set-up: dose 10 mg/kg, route po. As to conditions: in vivo.
Data set [9] deals with T1, Lysine-specific histone demethylase 1A. The data set is described as follows: Inhibition of LSD1 (unknown origin) assessed as inhibition constant using H3K4me2 as substrate by Lineweaver-Burk plot analysis.
Data set [10] has the same target. Briefly: Inhibition of LSD1 in human A549 cells assessed as increase in H3K9me2 protein level at 1 to 4 uM incubated for 72 hrs by Western blotting assay. It counts as cell-based. As to conditions: dose 1-4 µM.
The nature of data set [11]: Tmax in Sprague-Dawley rat at 10 mg/kg,po by LC-MS/MS analysis. It counts as ADME, organism-based. As to conditions: in vivo.
The nature of data set [12]: Toxicity in BALB/c mouse xenografted with human A549 cells assessed as change in body weight at 10 mg/kg,ip administrated for 15 days. It counts as organism-based. As to conditions: in vivo, 360 h, time 15 day.
A short description of data set [13]: Metabolic stability in human liver microsomes assessed as compound remaining measured upto 60 mins in presence of NADPH by LC/MS/MS analysis. The format is ADME, Microsome. As to conditions: read-out: Stability. On the technique in general: Liver microsomes are vesicles of endoplasmic reticulum, rich in cytochrome P450 enzymes.
Data set [14] concerns A549. Briefly: Antitumor activity against human A549 cells xenografted in BALB/c mouse assessed as reduction in tumor growth at 10 mg/kg,ip administrated for 15 days. The format is functional, organism-based. As to conditions: time 15.0 day. Background: In xenograft studies the graft and the host belong to different species.
In data set [15] the target is T3, Amine oxidase [flavin-containing] B (Homo sapiens, UniProt P27338).
T3 sequence (P27338 whole entry): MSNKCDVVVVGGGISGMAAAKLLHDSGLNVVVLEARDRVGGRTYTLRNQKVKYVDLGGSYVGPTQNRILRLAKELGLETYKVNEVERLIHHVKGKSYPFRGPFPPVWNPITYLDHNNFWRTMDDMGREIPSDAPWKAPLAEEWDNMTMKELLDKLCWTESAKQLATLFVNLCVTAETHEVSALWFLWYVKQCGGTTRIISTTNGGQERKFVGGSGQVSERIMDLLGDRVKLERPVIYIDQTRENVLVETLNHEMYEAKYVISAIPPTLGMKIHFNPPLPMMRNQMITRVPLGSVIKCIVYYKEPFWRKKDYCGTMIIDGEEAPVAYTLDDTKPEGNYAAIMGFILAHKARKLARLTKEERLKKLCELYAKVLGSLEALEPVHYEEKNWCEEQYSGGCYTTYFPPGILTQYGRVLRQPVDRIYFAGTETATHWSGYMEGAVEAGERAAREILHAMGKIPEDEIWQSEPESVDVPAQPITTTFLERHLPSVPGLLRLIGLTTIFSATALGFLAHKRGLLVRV
Description: Inhibition of recombinant MAO-B (unknown origin) incubated for 60 mins by luminescence based flow cytometry

Another data set deals with MGC-803. The data set is described as follows: cells. As to conditions: Homo sapiens, MGC-803, 72 h.
Another data set can be described thus: in vitro. As to conditions: human, THLE-2 cells.
Data set [16] has as its system A549. The data set is described as follows: Antitumor activity against human A549 cells xenografted in BALB/c mouse assessed as reduction in KI67 positive cells at 10 mg/kg,ip administrated for 15 days. The format is functional, organism-based. As to conditions: time 15.0 day.
Data set [17] in a line: AUC (0-t) in Sprague-Dawley rat at 10 mg/kg,po by LC-MS/MS analysis. As to conditions: in vivo. On the set-up: dose 10 mg/kg, route po. The format is ADME, organism-based.
Data set [18] addresses T1, Lysine-specific histone demethylase 1A. The data set is described as follows: Binding affinity to LSD1 in human A549 cells assessed as increase in thermal stability at 10 uM incubated for 1 hr by cellular thermal shift assay. It counts as cell-based.

The structures appear in SMILES notation. Calls of active or inactive are those of the source. No cut-off for these calls is given here.

Chain of Voltage-gated inwardly rectifying potassium channel KCNH2 (Q12809 whole entry): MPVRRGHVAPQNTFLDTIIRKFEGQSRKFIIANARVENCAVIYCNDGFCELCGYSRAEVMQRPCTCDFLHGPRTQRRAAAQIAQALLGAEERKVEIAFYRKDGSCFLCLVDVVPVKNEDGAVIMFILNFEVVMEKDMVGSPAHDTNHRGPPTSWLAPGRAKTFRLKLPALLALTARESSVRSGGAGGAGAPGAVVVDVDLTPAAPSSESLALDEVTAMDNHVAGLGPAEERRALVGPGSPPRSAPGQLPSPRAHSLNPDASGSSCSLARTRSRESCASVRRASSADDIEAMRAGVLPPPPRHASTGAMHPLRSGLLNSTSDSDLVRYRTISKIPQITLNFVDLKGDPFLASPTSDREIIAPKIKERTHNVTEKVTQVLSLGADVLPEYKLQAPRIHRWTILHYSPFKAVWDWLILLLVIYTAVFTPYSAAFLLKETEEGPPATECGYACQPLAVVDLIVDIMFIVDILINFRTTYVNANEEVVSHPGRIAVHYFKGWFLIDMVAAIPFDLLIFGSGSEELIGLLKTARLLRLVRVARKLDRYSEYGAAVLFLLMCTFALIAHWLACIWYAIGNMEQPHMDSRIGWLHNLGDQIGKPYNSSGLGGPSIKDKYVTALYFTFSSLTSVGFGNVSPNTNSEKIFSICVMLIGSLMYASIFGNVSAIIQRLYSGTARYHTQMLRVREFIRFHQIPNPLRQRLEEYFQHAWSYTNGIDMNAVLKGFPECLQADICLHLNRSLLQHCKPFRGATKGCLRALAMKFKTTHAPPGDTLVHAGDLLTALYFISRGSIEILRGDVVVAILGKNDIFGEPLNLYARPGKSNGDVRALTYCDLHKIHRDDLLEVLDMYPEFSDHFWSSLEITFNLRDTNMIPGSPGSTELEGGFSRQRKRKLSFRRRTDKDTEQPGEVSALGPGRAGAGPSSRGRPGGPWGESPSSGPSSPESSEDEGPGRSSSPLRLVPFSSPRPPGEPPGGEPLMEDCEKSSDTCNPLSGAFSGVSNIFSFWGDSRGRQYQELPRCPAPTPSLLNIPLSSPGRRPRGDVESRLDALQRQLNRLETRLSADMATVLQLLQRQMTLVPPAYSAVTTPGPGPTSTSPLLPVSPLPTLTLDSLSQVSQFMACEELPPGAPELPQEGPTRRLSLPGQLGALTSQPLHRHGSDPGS
Chain of CYP3A4 (P08684 whole entry): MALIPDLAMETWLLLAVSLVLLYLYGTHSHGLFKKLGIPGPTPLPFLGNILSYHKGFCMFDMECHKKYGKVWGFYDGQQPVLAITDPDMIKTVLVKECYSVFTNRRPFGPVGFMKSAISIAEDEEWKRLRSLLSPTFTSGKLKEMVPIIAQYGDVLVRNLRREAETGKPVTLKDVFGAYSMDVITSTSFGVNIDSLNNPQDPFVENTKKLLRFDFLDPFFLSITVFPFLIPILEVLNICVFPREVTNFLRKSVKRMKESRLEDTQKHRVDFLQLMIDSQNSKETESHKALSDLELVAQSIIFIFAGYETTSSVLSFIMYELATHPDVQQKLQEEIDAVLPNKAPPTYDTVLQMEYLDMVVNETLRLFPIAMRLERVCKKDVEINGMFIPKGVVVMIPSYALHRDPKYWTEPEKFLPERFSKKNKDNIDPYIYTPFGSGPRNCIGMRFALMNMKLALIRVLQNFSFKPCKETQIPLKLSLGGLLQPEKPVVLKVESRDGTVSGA
Description for MGC-803: Antiproliferative activity against human MGC-803 cells assessed as inhibition of cell growth incubated for 72 hrs by CCK-8 assay
Description for in vitro: Antiproliferative activity against human THLE-2 cells assessed as inhibition of cell growth incubated for 72 hrs by CCK-8 assay

By IC50 is commonly meant the concentration at which inhibition is half-maximal. For orientation: inhibition means how much of the control response was suppressed. As a reminder, the AUC(0-t) is exposure summed from dosing to a finite time, without extrapolation to infinity. Low readings indicate less exposure, high ones more exposure. In general, AUC(0-inf) refers to the area under the concentration-time curve extrapolated to infinity. Higher therefore signals more exposure. What is called Ki is the dissociation constant of the complex between target and ligand, obtained from inhibition or displacement. The term Tmax denotes the time from dosing to the highest level. Turning to `Cc1ccc(-c2cc3c(cc2-c2ccc(C#N)cc2)c(C(=O)N2CCC(N)CC2)cn3S(=O)(=O)c2ccc(F)cc2)cc1`, the half-inhibitory concentration (IC50) came to 0.05 µM in [1]; 3.3 µM in the data set with HeLa; 2.04 µM in [4]; 5.11 µM in data set [6]; 0.74 µM in the data set with A549 [7]; 0.72 µM in data set [15]. Moreover, half-maximal inhibition in the data set on MGC-803 (IC50) required 5.8 µM. The inhibition entry in data set [2] was “Active”. Also, the AUC(0-t) in data set [3] is 1320 ng·h/mL; in data set [17], 329 ng·h/mL. Besides, the inhibition result in data set [5] and in [10] was “Dose-Dependent Effect” each time. In addition, the inhibition at 20 min, 10 µM at CYP3A4 is 56.8%. Moreover, in data set [8], the total exposure AUC(0-inf) is 362 ng·h/mL. Moreover, the Ki in data set [9] is 0.155 µM. For the same compound, the Tmax in [11] is 4 h. In [12], the Activity result is listed as “Non-Toxic”. Moreover, in data set [13], the remaining at 1 h was 79.2%. Moreover, the result (with A549 [14]; in the data set with A549 [16]; in [18]) was Active. Besides, the concentration for half-maximal inhibition (IC50) at 72 h in the data set “in vitro” stood at 3.1 µM.

(Values after ChEMBL document CHEMBL5352388 (Eur J Med Chem, 2022).)
